From paper PMC11851430, “Workflow for E3 Ligase Ligand Validation for PROTAC Development” (ACS Chemical Biology, 2025)

Experiments:
Assay in all cases: DSF assay
Assay type in all cases: binding
Conditions in all cases: 20 µM compound
CAMK1GA = target: T1, CAMK1GA (Homo sapiens, UniProt Q96NX5)
T1 construct: purchased in-house DSF panel (SGC-style construct names; the trailing A/B is a construct suffix)

MAPK1A = target: T2, MAPK1A (Homo sapiens, UniProt P28482)
T2 construct: purchased in-house DSF panel (SGC-style construct names; the trailing A/B is a construct suffix)
T2 sequence (P28482 whole entry): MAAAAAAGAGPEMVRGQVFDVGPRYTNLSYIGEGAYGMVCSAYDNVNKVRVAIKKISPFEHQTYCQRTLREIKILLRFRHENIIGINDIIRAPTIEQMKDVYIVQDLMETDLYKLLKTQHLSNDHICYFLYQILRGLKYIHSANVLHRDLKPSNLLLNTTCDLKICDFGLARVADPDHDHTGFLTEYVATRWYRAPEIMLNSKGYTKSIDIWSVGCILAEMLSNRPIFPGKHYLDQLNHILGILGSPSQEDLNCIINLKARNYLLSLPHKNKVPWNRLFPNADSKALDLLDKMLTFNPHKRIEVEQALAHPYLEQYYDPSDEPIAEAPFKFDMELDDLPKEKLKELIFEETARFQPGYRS

STK6A = target: T3, STK6A (Homo sapiens, UniProt O14965)
T3 construct: purchased in-house DSF panel (SGC-style construct names; the trailing A/B is a construct suffix)
T3 sequence (O14965 122-403): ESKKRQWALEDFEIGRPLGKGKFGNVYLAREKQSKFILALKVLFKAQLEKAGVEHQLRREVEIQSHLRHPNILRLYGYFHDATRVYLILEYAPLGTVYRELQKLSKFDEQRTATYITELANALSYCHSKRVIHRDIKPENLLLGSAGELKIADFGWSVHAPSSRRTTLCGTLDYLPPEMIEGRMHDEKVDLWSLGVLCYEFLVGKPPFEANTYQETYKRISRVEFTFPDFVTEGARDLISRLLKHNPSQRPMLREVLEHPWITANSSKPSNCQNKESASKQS

MST3A = target: T4, MST3A (Homo sapiens, UniProt Q9Y6E0)
T4 construct: purchased in-house DSF panel (SGC-style construct names; the trailing A/B is a construct suffix)
T4 sequence (Q9Y6E0 4-301): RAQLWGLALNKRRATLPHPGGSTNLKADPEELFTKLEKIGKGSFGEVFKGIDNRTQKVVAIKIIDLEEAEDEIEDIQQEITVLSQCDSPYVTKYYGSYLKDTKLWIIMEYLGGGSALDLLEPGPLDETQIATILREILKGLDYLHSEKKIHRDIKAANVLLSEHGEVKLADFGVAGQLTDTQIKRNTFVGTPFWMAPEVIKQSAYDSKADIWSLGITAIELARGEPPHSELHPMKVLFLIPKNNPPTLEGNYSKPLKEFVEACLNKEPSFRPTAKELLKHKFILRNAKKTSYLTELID

CLK1 = target: T5, CLK1 (Homo sapiens, UniProt P49759)
T5 construct: purchased in-house DSF panel (SGC-style construct names; the trailing A/B is a construct suffix)
T5 sequence (P49759 148-484): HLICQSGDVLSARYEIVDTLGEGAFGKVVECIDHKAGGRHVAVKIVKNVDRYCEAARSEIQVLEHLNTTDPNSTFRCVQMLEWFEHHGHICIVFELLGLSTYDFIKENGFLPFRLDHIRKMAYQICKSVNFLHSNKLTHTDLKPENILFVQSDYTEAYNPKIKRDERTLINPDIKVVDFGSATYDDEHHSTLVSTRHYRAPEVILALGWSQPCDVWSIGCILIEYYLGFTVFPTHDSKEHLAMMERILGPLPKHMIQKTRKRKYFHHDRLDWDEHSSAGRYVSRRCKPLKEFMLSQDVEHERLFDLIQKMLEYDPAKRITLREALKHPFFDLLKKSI

AKT3A = target: T6, AKT3A (Homo sapiens, UniProt Q9Y243)
T6 construct: purchased in-house DSF panel (SGC-style construct names; the trailing A/B is a construct suffix)
T6 sequence (Q9Y243 141-479): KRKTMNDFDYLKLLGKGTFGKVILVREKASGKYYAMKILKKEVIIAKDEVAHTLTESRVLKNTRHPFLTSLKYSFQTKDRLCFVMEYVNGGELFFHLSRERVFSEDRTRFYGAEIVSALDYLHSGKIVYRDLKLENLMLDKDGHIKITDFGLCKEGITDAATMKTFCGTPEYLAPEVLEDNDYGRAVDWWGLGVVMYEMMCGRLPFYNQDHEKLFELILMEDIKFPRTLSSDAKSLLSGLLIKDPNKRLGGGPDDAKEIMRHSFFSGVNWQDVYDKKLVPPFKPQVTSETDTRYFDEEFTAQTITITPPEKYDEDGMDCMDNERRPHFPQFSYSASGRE

DAPK1A = target: T7, DAPK1A (Homo sapiens, UniProt P53355)
T7 construct: purchased in-house DSF panel (SGC-style construct names; the trailing A/B is a construct suffix)
T7 sequence (P53355 1-285): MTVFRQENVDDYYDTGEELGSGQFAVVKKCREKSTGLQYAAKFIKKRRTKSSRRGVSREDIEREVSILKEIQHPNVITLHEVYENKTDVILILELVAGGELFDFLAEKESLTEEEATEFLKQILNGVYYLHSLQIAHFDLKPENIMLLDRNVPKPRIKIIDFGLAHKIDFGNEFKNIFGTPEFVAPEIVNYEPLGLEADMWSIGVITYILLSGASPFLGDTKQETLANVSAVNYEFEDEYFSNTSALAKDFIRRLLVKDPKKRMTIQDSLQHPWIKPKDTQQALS

PAK4A = target: T8, PAK4A (Homo sapiens, UniProt O96013)
T8 construct: purchased in-house DSF panel (SGC-style construct names; the trailing A/B is a construct suffix)
T8 sequence (O96013 291-591): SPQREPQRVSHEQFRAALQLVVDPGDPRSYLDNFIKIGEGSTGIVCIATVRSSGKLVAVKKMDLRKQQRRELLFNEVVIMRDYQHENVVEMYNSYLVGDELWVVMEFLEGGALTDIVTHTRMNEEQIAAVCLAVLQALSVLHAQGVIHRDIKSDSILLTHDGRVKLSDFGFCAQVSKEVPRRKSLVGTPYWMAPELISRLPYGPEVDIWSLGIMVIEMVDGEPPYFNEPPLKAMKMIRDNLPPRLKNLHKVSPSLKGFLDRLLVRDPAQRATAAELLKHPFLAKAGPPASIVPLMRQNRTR

STK4A = target: T9, STK4A (Homo sapiens, UniProt Q13043)
T9 construct: purchased in-house DSF panel (SGC-style construct names; the trailing A/B is a construct suffix)
T9 sequence (Q13043 1-311): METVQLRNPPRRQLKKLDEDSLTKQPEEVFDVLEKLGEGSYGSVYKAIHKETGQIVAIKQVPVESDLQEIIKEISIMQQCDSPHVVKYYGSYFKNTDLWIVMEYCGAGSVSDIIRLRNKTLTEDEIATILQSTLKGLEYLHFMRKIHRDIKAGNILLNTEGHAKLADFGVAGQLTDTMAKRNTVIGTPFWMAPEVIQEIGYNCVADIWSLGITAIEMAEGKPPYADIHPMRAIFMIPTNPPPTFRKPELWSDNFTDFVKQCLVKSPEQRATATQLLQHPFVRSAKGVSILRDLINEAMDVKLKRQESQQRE

PHKG2A = target: T10, PHKG2A (Homo sapiens, UniProt P15735)
T10 construct: purchased in-house DSF panel (SGC-style construct names; the trailing A/B is a construct suffix)
T10 sequence (P15735 6-293): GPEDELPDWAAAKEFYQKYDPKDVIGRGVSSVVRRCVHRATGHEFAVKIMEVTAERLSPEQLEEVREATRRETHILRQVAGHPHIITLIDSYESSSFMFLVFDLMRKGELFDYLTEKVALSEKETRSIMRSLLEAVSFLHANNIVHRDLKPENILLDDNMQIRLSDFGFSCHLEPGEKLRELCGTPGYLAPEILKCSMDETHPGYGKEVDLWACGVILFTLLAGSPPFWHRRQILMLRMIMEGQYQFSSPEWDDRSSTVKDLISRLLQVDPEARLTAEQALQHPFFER

TLK1A = target: T11, TLK1A (Homo sapiens, UniProt Q9UKI8)
T11 construct: purchased in-house DSF panel (SGC-style construct names; the trailing A/B is a construct suffix)
T11 sequence (Q9UKI8 456-734): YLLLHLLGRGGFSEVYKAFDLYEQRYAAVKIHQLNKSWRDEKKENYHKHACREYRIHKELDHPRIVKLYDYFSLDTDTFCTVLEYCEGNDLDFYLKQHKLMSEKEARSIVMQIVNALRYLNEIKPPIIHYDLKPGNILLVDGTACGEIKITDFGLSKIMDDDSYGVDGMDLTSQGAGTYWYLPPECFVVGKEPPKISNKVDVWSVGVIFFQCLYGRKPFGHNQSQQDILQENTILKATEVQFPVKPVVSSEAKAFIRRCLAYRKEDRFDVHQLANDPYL

DMPK1A = target: T12, DMPK1A (Homo sapiens, UniProt Q09013)
T12 construct: purchased in-house DSF panel (SGC-style construct names; the trailing A/B is a construct suffix)
T12 sequence (Q09013 1-629): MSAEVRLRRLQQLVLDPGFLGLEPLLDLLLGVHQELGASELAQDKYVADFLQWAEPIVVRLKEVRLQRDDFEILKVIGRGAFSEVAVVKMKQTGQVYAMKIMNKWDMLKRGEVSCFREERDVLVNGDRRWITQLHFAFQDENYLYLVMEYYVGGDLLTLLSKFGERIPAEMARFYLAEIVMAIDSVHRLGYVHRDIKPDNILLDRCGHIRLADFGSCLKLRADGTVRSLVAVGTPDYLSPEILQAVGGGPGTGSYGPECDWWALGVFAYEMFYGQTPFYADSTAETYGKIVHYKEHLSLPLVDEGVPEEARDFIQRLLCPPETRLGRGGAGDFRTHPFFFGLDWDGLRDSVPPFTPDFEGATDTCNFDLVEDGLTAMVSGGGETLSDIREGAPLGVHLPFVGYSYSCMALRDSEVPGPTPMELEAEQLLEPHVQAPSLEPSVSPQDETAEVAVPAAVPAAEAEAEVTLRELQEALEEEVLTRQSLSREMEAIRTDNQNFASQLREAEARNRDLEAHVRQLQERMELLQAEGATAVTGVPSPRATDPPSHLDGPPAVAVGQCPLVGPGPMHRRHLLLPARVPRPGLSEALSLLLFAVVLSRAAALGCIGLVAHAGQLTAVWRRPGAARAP

GSG2A = target: T13, GSG2A (Homo sapiens, UniProt Q8TF76)
T13 construct: purchased in-house DSF panel (SGC-style construct names; the trailing A/B is a construct suffix)
T13 sequence (Q8TF76 465-798): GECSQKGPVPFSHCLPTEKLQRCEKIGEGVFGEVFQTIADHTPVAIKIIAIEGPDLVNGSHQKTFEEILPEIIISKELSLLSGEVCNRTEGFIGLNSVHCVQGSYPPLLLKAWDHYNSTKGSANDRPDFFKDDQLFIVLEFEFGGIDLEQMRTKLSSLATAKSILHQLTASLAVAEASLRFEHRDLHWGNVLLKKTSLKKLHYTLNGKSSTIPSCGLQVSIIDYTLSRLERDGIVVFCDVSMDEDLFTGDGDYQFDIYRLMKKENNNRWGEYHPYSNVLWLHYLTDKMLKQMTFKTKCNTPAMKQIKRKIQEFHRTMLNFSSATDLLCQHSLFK

T1 sequence (Q96NX5 23-277): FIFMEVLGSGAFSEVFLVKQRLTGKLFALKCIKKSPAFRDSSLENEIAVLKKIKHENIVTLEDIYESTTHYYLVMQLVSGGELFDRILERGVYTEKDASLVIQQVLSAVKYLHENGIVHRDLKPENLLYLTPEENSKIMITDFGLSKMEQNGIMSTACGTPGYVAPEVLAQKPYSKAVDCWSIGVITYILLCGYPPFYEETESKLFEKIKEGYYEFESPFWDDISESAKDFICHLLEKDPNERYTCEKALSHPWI

| ΔTm at 20 µM (CAMK1GA) [°C] | ΔTm at 20 µM (MAPK1A) [°C] | ΔTm at 20 µM (STK6A) [°C] | ΔTm at 20 µM (MST3A) [°C] | ΔTm at 20 µM (CLK1) [°C] | ΔTm at 20 µM (AKT3A) [°C] | ΔTm at 20 µM (DAPK1A) [°C] | ΔTm at 20 µM (PAK4A) [°C] | ΔTm at 20 µM (STK4A) [°C] | ΔTm at 20 µM (PHKG2A) [°C] | ΔTm at 20 µM (TLK1A) [°C] | ΔTm at 20 µM (DMPK1A) [°C] | ΔTm at 20 µM (GSG2A) [°C] | Structure (SMILES) |
| --- | --- | --- | --- | --- | --- | --- | --- | --- | --- | --- | --- | --- | --- |
| 1.53 | 4.85 | 14.4 | 7.56 | 14.4 | 1.18 | 3.22 | 7.87 | 8.99 | 7.46 | 5.4 | 3.8 | 2.54 | CCOC(=O)c1cc(Nc2cc(C3CC3)[nH]n2)nc(Nc2ccc(CC#N)cc2)n1 [compound 5] |
| 0.98 | 3.2 | 18.7 | 8.31 | 12 | 0.51 | 2.7 | 11 | 9.02 | 8.76 | 3.45 | 3.19 | 1.36 | CC(C)(C)OC(=O)NCCOCCOCCOCCOCCC(=O)N1CCN(c2cc(Nc3cc(C4CC4)[nH]n3)nc(Nc3ccc(CC#N)cc3)n2)CC1 [4-L] |
| 3.37 | 4.69 | 12.2 | 3.47 | 13.6 | 0.12 | 1.49 | 9.26 | 7.44 | 5.86 | 4.52 | 3.69 | 1.49 | CC(C)(C)OC(=O)NCCCOCCOCCOCCCNC(=O)c1cc(Nc2cc(C3CC3)[nH]n2)nc(Nc2ccc(CC#N)cc2)n1 [5-L] |
